Laboratory results from US8257696B2, “Indefinite culture of human adult glia without immortalization and therapeutic uses thereof” (University of Florida Research Foundation, Inc., priority 2004, dated 2012).
“Also recorded” adds a separate entry of the source.

What was measured:
Format in all cases: cell-based, human
[1] = test system: high passage cells (HES astroglia); experiment: Growth rate by cell counting after reversible growth inhibitors and washout; conditions: for proliferation upon removal of growth inhibitors: after removal of inhibitor; for rate of cellular proliferation (growth rate): high passage cells, measured 7 days after addition
Protocol: Primary tissue was gathered from individuals undergoing surgery related to medically intractable temporal lobe epilepsy. Primary tissue was removed and stored overnight in ice-cold DMEM/F-12 medium containing 20 mg/ml penicillin, […] streptomycin., and 25 ng/ml amphotericin B (collectively 1× antibiotics). Hippocampus (containing hilus) and temporal cortex (not containing subventricular zone) were microdissected from biopsied tissue samples (n=4, data presented from person). Dissected tissues were placed in 1× phosphate buffered saline (PBS, pH 7.3) lacking CaCl2 or MgCl2, and were manually dissociated into 1 mm^3 pieces under sterile conditions. Tissues were collected and resuspended in 0.005% trypsin (15 min, 37° C., pH 7.3), and were further triturated using restricted bore pipetting. Cells were collected, resuspended in proliferative media, and seeded onto uncoated T75 culture flasks overnight (12 hr, 37° C., 5% humidified CO2). Unattached cells were collected and seeded onto uncoated 60 mm plastic dishes in proliferative media. Proliferative media was comprised of DMEM/F-12 containing N2 supplements, 35 μg/ml bovine pituitary extract, 1× antibiotics, 5% fetal calf serum (FCS), and 40 ng/ml of EGF and FGF. 20 ng of EGF and FGF were supplemented twice daily. When necessary, media was changed every fourth day. Cells were frozen in aliquots of 1 million cells in DMEM/F-12 containing 10% FCS and 20% dimethyl sulfoxide (v/v). Cells were passaged 1:2 when confluent. Cells were dissociated with 0.005% trypsin, counted (using trypan dye exclusion as viability criteria), and were replated onto uncoated 60 mm plastic dishes. For growth monitoring experiments, 1 μg/ml aphidicolin or 20 μM EGCG were added to culture media 1 hour after plating. Irradiated cells were treated with a single 3 Gy dose of X-irradiation. Following the period of application, cells were washed in 1×PBS and were resuspended in proliferative media or fixed. To assess viability of cells in various growth conditions, equal numbers of culture-matched cells were seeded into triplicate wells of various proliferative conditions, and counted 7, 14, and 21 days later. For growth factor analysis, EGF and/or FGF were removed for seven days, and surviving cells were returned to proliferative media. Significance (p<0.05) was calculated using a student's t-test. In vitro images of cultured cells were captured using a Nikon Eclipse TS-100 bright field microscope and a Spot 3.1 digital camera (Diagnostic Instruments).
Isolation and Culture of Tissue: Primary tissue was gathered from individuals undergoing surgery related to medically intractable temporal lobe epilepsy. […]

[2] = test system: TERT; experiment: Telomerase (TERT) expression after growth arrest; conditions: high passage cells, measured 7 days after addition
Protocol: Cells were plated on coverslips coated with poly-L-lysine or polyornithine and laminin and grown to confluency in proliferative media. Cells were fixed with 4% paraformaldehyde ([…], 25° C.). After washing with PBS, cells were blocked 20 min in PBS containing 10% FCS, 5% normal goat serum, and 0.01% Triton X-100. Primary antibodies were applied for either 1 hour at 25° C. or overnight at 4° C. in PBS containing 10% FCS and 0.01% Triton X-100. Primary antibodies: β III tubulin (mouse monoclonal, 1:300, Promega), BrdU (mouse monoclonal, 1:50, Becton-Dickinson), CNPase (mouse monoclonal, 1:250, Chemicon), GFAP (rabbit polyclonal, 1:600, DAKO), glutamine synthetase (rabbit polyclonal, 1:100, AbCam), map2a-c (chicken polyclonal, 1:30,000), nestin (mouse monoclonal, 1:50, Chemicon), O4 (mouse monoclonal IgM, 1:150, Chemicon), S100-β (rabbit polyclonal, 1:100, Swant), telomerase (rabbit polyclonal, 1:200, Santa Cruz). Secondary antibodies were applied for 45 min at 25° C. in PBS containing 10% FCS and 0.01% Triton X-100. […] SA-βGal expression was assessed 7 days after addition of growth arrestors as described (Dimri, G. P. et al. Proc Nat'l Acad Sci U S A 92, 9363-7 (1995)). […] Fluorescence microscopy was performed on a Leica DMLB upright microscope and images were captured with a Spot RT Color CCD camera (Diagnostic Instruments). […]

[3] = test system: high passage cells (HES astroglia); experiment: Senescence-associated β-galactosidase (SA-β-gal) expression after growth arrestors; conditions: evaluated 7 days after addition, 1 μg/ml aphidicolin or 20 μM EGCG, vs age-matched controls
Protocol: Primary tissue was gathered from individuals undergoing surgery related to medically intractable temporal lobe epilepsy. Primary tissue was removed and stored overnight in ice-cold DMEM/F-12 medium containing 20 mg/ml penicillin, […] streptomycin., and 25 ng/ml amphotericin B (collectively 1× antibiotics). Hippocampus (containing hilus) and temporal cortex (not containing subventricular zone) were microdissected from biopsied tissue samples (n=4, data presented from person). Dissected tissues were placed in 1× phosphate buffered saline (PBS, pH 7.3) lacking CaCl2 or MgCl2, and were manually dissociated into 1 mm^3 pieces under sterile conditions. Tissues were collected and resuspended in 0.005% trypsin (15 min, 37° C., pH 7.3), and were further triturated using restricted bore pipetting. Cells were collected, resuspended in proliferative media, and seeded onto uncoated T75 culture flasks overnight (12 hr, 37° C., 5% humidified CO2). […] Cells were dissociated with 0.005% trypsin, counted (using trypan dye exclusion as viability criteria), and were replated onto uncoated 60 mm plastic dishes. […] To assess viability of cells in various growth conditions, equal numbers of culture-matched cells were seeded into triplicate wells of various proliferative conditions, and counted 7, 14, and 21 days later. […] Significance (p<0.05) was calculated using a student's t-test. […]

Row | Compound | proliferation upon removal of growth inhibitors [1] | rate of cellular proliferation (growth rate) [1] | TERT (telomerase) expression [2] | SA-β-gal expression [3]
1 | C[C@@]1(CO)[C@H](O)CC[C@@]2(C)[C@H]1CC[C@H]1C[C@@H]3C[C@@]12CC[C@]3(O)CO [aphidicolin] | return to previous levels of proliferation | lose their ability to proliferate in culture | continue to express telomerase | marked increase in SA-β-Gal; also recorded: significantly higher levels of SA-β-gal than age-matched controls
2 | epigallocatechin-3-gallate [EGCG] | return to previous levels of proliferation | lose their ability to proliferate in culture; also recorded: significantly reduced; also recorded: significant reduction | continue to express telomerase; also recorded: remained detectable; also recorded: remained ubiquitous | marked increase in SA-β-Gal; also recorded: express SA-β-Gal
